Results: patent publication US20260308177A1, “THIAZOLOPYRIDIN-7(4H)-ONE WRN INHIBITORS” (NIMBUS WADJET, INC., priority 2023, published 2026)
pEC50, pIC50: −log10 of the molar value. Like-named read-outs stand apart in the source and are kept apart here.

Experiments:
[1] = target: T1, human Werner helicase (WRN-BV08, amino acids 517-1235, L1074F) (Homo sapiens, UniProt Q14191, L1074F); test: WRN (BV08) ADP-Glo Assay (ATPase inhibition); format: biochemical
T1 construct: TEV-cleavable 8×His tag (C, cleaved yes); made in house; host or cells: Sf9 insect cells (baculovirus)
T1 sequence (Q14191 with tags, fused parts or gaps L1074F): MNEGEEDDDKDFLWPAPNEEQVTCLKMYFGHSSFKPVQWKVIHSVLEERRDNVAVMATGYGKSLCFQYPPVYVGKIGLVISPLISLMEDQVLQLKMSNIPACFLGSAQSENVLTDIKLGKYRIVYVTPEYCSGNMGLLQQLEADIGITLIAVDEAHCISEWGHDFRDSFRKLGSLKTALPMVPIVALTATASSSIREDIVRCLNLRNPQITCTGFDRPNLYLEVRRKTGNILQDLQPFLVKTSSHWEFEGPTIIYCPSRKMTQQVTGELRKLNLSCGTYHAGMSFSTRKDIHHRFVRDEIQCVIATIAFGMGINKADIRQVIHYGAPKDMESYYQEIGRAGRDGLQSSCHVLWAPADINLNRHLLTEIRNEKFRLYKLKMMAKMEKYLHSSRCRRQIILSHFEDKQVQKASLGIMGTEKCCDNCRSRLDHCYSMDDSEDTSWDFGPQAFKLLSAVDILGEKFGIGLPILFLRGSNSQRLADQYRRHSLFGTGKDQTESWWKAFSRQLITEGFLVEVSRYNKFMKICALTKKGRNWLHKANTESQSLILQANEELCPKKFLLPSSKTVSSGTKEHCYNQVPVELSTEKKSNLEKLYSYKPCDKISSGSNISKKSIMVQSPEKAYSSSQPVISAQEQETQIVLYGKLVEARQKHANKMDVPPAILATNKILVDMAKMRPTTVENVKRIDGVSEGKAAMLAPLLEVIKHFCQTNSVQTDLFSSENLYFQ
Text: Example 2: WRN (BV08) ADP-Glo Assay Protocol
Bovine skin gelatin (BSG), dimethyl sulfoxide (DMSO), Pluronic F-127 and tris(2-carboxyethyl)phosphine hydrochloride solution (TCEP) were purchased from Sigma-Aldrich (St. Louis, MO) at the highest level of purity possible. Bicine buffer solution was purchased from Alfa Aesar (Tewksbury, MA) and compound NSC-617145 was purchased from Tocris (Minneapolis, MN). DNA duplex was synthesized at BGI (Shenzhen, China) and was composed of strand 1 with the sequence 5′-[…]-3′ (SEQ ID NO.: 1) and strand 2 with the sequence 5′-[…]-3′ (SEQ ID NO.: 2). DNA strands were annealed by heating to 95° C. for 5 minutes followed by slow cooling to room temperature. Compounds in 100% DMSO (0.1 μl) were spotted into a 384-well white polystyrene Optiplate-384 (Perkin Elmer; Waltham, MA) assay plate using a LabCyte Echo 550 (Agilent; Santa Clara, CA). DMSO (0.1 μl) was added to columns 12, rows A-H and column 24, rows I-P for the maximum signal control. Compound NSC-617145 (0.1 μl) was added to columns 12, rows I-P and 24, rows A-H for the minimum signal control (100% inhibition). Compounds/DMSO were preincubated for 15 minutes at 25° C. with 5 μl 2×WRN (BV08), prepared as described below, in assay buffer containing 20 mM Bicine (pH=7.5), 1 mM MgCl2, 10 mM KCl, 0.1% Pluronic F-127, 0.005% BSG, 1 mM TCEP. The reaction was initiated by the addition of 5 μl 2× substrate mixture in assay buffer and incubated for 60 minutes at 25° C. The final concentrations of the assay components were 0.15 nM WRN, 5 μM ATP, and 0.1 nM DNA duplex. The final DMSO concentration was 1% and the reference compound concentration (NSC-617145) used for the minimal signal control was 20 μM. The reaction was stopped by the addition of the ADP-Glo Kit components (Promega; Madison, WI) as directed and the relative luminescence units (RLU) were read on an Envision 2104 (Perkin Elmer; Waltham, MA). % inhibition calculation:
Where RLU=relative luminescence units, sample=signal in sample well, and MIN and MAX are the respective minimum and maximum signal controls.
Four-parameter IC50 fit equation:
Where top and bottom are normally allowed to float but may be fixed at 100 or 0 respectively in a 3-parameter fit. Y is the % inhibition and X is the compound concentration.
Molecular Biology and virus production. The DNA encoding human Werner helicase (Uniprot Q14191, amino acids 517-1235 with L1074F point mutation) was generated with codon-optimization for E. coli expression and subcloned into the pFastBac vector with a TEV cleavable 8×His tag (WRN—BV08). The baculovirus from the expression plasmid WRN—BV08 was generated from transfection and amplification following the manufacturer's instructions.
Sf9 cells grown in SF900II media were infected with 1:200 WRN—BV08 P2 virus and incubated for protein expression for 72 h at 27° C. The WRN protein was purified using the following protocol. The cell pellets were thawed and resuspended in buffer A (50 mM Tris, pH 7.5, 500 mM NaCl, 1 mM TCEP, 10% Glycerol) supplemented with 0.5% CHAPS, 1 mM [COMPOUND LEFT OUT], 1 μg/ml Leupeptin, 1 μg/ml Pepstatin, and the Pierce Universal Nuclease and cocktail tablet. Cleared lysates were loaded onto a Ni Sepharose™ excel column and washed with buffer A and bound protein was eluted with buffer A supplemented with 300 mM imidazole. The eluted protein was dialyzed against buffer A and digested by His-tagged TEV (1:5 ratio) overnight at 4° C. ZnCl2 was added into the sample at final 15 μM before loading onto a second Ni Sepharose™ excel column. Untagged WRN protein was eluted from the column with buffer A supplemented with 20 mM imidazole, dialyzed overnight into buffer B (50 mM Tris, pH 7.5, 1 mM TCEP, 10% Glycerol) supplemented with 150 mM NaCl and loaded onto a Heparin column. Proteins were eluted with a step gradient of buffer B supplemented with 150 mM, 200 mM, 300 mM and 500 mM NaCl. […]

p21 in HCT116 cells = target: T2, p21 in HCT116 cells (Homo sapiens, UniProt Q14191); test: p21 induction in HCT116 cells; format: cell-based; details: 24 h, p21/GAPDH signal ratio, % activation vs internal reference WRN inhibitor, read-out: P21_EC50
T2 construct: p21 induction in-cell western, 24 h
T2 sequence (Q14191 whole entry): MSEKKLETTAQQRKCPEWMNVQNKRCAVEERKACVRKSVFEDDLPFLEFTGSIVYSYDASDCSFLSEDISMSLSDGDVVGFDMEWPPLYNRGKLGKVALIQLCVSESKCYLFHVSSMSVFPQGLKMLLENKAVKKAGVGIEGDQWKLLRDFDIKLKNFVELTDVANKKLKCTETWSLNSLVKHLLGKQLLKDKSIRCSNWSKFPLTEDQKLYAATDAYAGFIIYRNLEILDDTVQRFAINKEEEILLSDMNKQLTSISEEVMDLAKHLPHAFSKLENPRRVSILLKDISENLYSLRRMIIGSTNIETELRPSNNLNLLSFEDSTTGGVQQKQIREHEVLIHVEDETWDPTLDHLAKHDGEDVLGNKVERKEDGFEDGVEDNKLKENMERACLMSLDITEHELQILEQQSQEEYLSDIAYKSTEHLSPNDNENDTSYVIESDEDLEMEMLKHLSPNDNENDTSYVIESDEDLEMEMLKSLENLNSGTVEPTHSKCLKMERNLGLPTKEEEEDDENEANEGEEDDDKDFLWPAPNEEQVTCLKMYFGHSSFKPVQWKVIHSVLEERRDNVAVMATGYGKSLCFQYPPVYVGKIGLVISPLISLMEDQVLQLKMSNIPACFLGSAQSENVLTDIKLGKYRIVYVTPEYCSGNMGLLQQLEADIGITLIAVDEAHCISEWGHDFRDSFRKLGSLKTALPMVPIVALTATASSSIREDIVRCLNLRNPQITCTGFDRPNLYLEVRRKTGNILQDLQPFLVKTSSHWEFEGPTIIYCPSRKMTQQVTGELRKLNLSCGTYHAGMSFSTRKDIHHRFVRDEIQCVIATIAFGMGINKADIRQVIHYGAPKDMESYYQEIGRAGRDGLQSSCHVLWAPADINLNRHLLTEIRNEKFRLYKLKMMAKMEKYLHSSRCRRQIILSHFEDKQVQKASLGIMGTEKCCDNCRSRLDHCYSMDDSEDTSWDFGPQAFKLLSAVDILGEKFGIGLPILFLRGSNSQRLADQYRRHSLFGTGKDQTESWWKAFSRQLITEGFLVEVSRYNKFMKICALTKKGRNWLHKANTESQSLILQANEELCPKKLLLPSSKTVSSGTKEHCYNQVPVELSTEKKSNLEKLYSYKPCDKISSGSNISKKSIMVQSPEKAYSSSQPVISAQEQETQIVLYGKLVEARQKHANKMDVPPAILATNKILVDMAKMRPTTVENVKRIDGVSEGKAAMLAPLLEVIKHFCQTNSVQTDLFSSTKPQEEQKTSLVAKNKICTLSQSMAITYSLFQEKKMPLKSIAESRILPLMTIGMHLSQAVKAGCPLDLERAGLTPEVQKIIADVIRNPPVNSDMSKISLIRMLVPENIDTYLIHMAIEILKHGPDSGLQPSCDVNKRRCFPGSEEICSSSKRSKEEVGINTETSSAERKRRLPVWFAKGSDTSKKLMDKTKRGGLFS
Experimental: (§1) Example 3: Method for Determining Effect on p21 Induction in Cells
(§2) The colon carcinoma cell line HCT116 was obtained from ATCC and cultured in growth medium consisting of Mccoy's 5A Medium (Gibco 16600108) supplemented with 10% FBS (Transgene FS201-02) and 100 units/mL penicillin-streptomycin (Gibco 15140122) and maintained at 37° C. under 5% CO2. On the day of seeding, 2,000 cells in 30 μL of culture media were plated per well to Poly-D-Lysine 384 Well Black Clear Plates (Biocoat 356663) and incubated overnight at 37° C. under 5% CO2. The following day, compounds were serially diluted in DMSO for a total of 11 test concentrations. The typical starting concentration of cpds was 10 uM with 2-fold dilutions. Next, 150 nL of diluted compound was added in duplicate to the assay plate, using an Echo 655 (Labcyte). The plate was centrifuged at 500 RPM for 1 min and then incubated at 37° C. under 5% CO2 for 24 h. After 24 h, medium was removed, and cells were fixed by adding 40 μL of 4% paraformaldehyde solution to each well and incubated for 20 min at room temperature. The plate was then washed 4 times with 100 μL per well of wash buffer (PBS with 0.1% Tween-20) using a microplate washer. Next, 30 μL of ice-cold methanol was added to each well and the plate was incubated at −20° C. for 10 min. The plate was washed 4 times with 100 µL per well of wash buffer by a microplate washer, then 30 μL per well of blocking buffer ((Intercept PBS blocking buffer (LI-COR 927-70001) with 0.05% Tween-20)) was added and the plate was incubated at room temperature with shaking for 2 h. Next, to each test well, 20 μL of primary antibody solution ((p21 Waf1/CIP (12D1) Rabbit mAb (Cell Signaling Technologies 2947) diluted 1:1000 and GAPDH (D4C6R) Mouse mAb (Cell Signaling Technologies 97166) diluted 1:2000 in blocking buffer)) was added and the plate was placed at 4° C., overnight. The following day, the plate was washed 5 times with 100 μL per well of wash buffer using a microplate washer for 5 min. 20 μL per well of secondary antibody ((IRDye 680CW Goat anti-Mouse IgG (H+L) (LI-COR 926-68070) diluted 1: 2000 in Blocking Buffer and IRDye 800CW Goat anti-Rabbit IgG (H+L) (LI-COR 926-32211) diluted 1: 2000 in Blocking Buffer)) was then added and the plate was stored for 2 h in the dark at room temperature with shaking. The plate was then washed 4 times with 100 μL per well of wash buffer again using a microplate washer. Finally, the p21 signal and the GAPDH signal were quantified using a LI-COR Odyssey CLx Imager machine reading at 800 nm and 700 nm, respectively. Each plate contained DMSO control (low control) and an internal reference WRN inhibitor (high control) respectively. For quantitation, the 800 nm/700 nm ratio was calculated for each well to give fold p21 induction and then percent activation for each compound well was calculated as follows ((100×(ratio cpd well-ratio low control)/(ratio high control−ratio low control)). EC50 values for each compound was generated after non-linear regression curve fitting using commercially available software.

[2] = p21 induction in HCT116 cells; format: cell-based, human; details: read-out: P21_EC50, 24 h, p21/GAPDH signal ratio, % activation vs internal reference WRN inhibitor
Experimental: as §1, §2

[3] = 0.15 nM WRN, 5 μM ATP, 0.1 nM DNA duplex, pH 7.5, 15 min preincubation, 60 min at 25° C., 1% DMSO, read-out: ADP-Glo_hWRN_IC50

SMILES | pIC50 [1, 3] | pEC50 (p21 in HCT116 cells) | pIC50 [1] | pEC50 [2]
CCc1c(N2CCN(C(=O)c3ncnc(C)c3O)CC2)c(=O)c2sc(-c3ccnc(OC)c3)nc2n1CC(=O)Nc1ccc(C(F)(F)F)cc1Cl [Compound I-2, N-(2-chloro-4-(trifluoromethyl)phenyl)-2-(5-ethyl-6-(4-(5-hydroxy-6-methylpyrimidine-4-carbonyl)piperazin-1-yl)-2-(2-methoxypyridin-4-y1)-7-oxothiazolo[4,5-b]pyridin-4(7H)-yl)acetamide] | > 8.30 | > 6.30 | – | –
CCc1c(N2CCN(C(=O)c3c(O)ccnc3OC)CC2)c(=O)c2nc(-c3ccnc(OC)c3)sc2n1CC(=O)Nc1ccc(C(F)(F)F)cc1Cl [Compound I-5, N-(2-chloro-4-(trifluoromethyl)phenyl)-2-(5-ethyl-6-(4-(4-hydroxy-2-methoxynicotinoyl)piperazin-1-y1)-2-(2-methoxypyridin-4-y1)-7-oxothiazolo[5,4-b]pyridin-4(7H)-y1)acetamide] | 7.30 to 8.30 | 5.70 to 6.30 | – | –
CCc1c(N2CCN(C(=O)c3ncnc(C)c3O)CC2)c(=O)c2sc(-c3ccnc(OC)c3)nc2n1CC(=O)NC12CC(C(F)(F)F)(C1)C2 [Compound I-8, 2-(5-ethyl-6-(4-(5-hydroxy-6-methylpyrimidine-4-carbonyl)piperazin-1-yl)-2-(2-methoxypyridin-4-y1)-7-oxothiazolo[4,5-b]pyridin-4(7H)-y1)-N-(3-(trifluoromethyl)bicyclo[1.1.1]pentan-1-yl)acetamide] | 7.30 to 8.30 | < 5.30 | – | –
CCc1c(N2CCN(C(=O)c3ncnc(C)c3O)CC2)c(=O)c2nc(-c3ccnc(OC)c3)sc2n1CC(=O)Nc1ccc(C(F)(F)F)cc1Cl [Compound I-1, N-(2-chloro-4-(trifluoromethyl)phenyl)-2-(5-ethyl-6-(4-(5-hydroxy-6-methylpyrimidine-4-carbonyl)piperazin-1-yl)-2-(2-methoxypyridin-4-yl)-7-oxothiazolo[5,4-b]pyridin-4(7H)-yl)acetamide] | 7.30 to 8.30 | 5.70 to 6.30 | – | –
CCc1c(N2CCN(C(=O)c3ncnc(C)c3O)CC2)c(=O)c2nc(-c3cnn(C)c3)sc2n1CC(=O)Nc1ccc(C(F)(F)F)cc1Cl [1-7] | 7.30 to 8.30 | – | – | –
CCc1c(N2CCN(C(=O)c3ncnc(C)c3O)CC2)c(=O)c2nc(N3CCCC3)sc2n1CC(=O)Nc1ccc(C(F)(F)F)cc1Cl [Compound I-4, N-(2-chloro-4-(trifluoromethyl)phenyl)-2-(5-ethyl-6-(4-(5-hydroxy-6-methylpyrimidine-4-carbonyl)piperazin-1-yl)-7-oxo-2-(pyrrolidin-1-yl)thiazolo[5,4-b]pyridin-4(7H)-yl)acetamide] | 7.30 to 8.30 | 5.30 to 5.70 | – | –
CCc1c(N2CCN(C(=O)c3ncnc(C)c3O)CC2)c(=O)c2nc(-c3cnn(C)c3)sc2n1CC(=O)Nc1ccc(C(F)(F)F)cc1Cl [Compound I-7, N-(2-chloro-4-(trifluoromethyl)phenyl)-2-(5-ethyl-6-(4-(5-hydroxy-6-methylpyrimidine-4-carbonyl)piperazin-1-y1)-2-(1-methyl-1H-pyrazol-4-y1)-7-oxothiazolo[5,4-b]pyridin-4(7H)-yl)acetamide] | – | < 5.30 | – | –
CCc1c(N2CCN(C(=O)c3ncnc(C)c3O)CC2)c(=O)c2nc(C3=CCOCC3)sc2n1CC(=O)Nc1ccc(C(F)(F)F)cc1Cl [Compound I-3, N-(2-chloro-4-(trifluoromethyl)phenyl)-2-(2-(3,6-dihydro-2H-pyran-4-y1)-5-ethyl-6-(4-(5-hydroxy-6-methylpyrimidine-4-carbonyl)piperazin-1-yl)-7-oxothiazolo[5,4-b]pyridin-4(7H)-yl)acetamide] | 7.30 to 8.30 | – | – | –
CCc1c(N2CCN(C(=O)c3ncnc(C)c3O)CC2)c(=O)c2nc(C3=CCOCC3)sc2n1CC(=O)Nc1ccc(C(F)(F)F)cc1Cl [1-3] | – | 5.30 to 5.70 | – | –
C=C(C)c1nc2c(=O)c(N3CCN(C(=O)c4ncnc(C)c4O)CC3)c(CC)n(CC(=O)Nc3ccc(C(F)(F)F)cc3Cl)c2s1 [Compound I-6, N-(2-chloro-4-(trifluoromethyl)phenyl)-2-(5-ethyl-6-(4-(5-hydroxy-6-methylpyrimidine-4-carbonyl)piperazin-1-yl)-7-oxo-2-(prop-1-en-2-yl)thiazolo[5,4-b]pyridin-4(7H)-yl)acetamide] | – | – | 7.30 to 8.30 | 5.70 to 6.30
